Test results taken from publication PMC10742785, “Screening and Characterization of an α-Amylase Inhibitor from Carya cathayensis Sarg. Peel” (Foods, 2023).

Target: T1, α-amylase (hog pancreas) (Sus scrofa, UniProt P00690)
T1 construct: gene AMY2
T1 sequence (P00690 16-511): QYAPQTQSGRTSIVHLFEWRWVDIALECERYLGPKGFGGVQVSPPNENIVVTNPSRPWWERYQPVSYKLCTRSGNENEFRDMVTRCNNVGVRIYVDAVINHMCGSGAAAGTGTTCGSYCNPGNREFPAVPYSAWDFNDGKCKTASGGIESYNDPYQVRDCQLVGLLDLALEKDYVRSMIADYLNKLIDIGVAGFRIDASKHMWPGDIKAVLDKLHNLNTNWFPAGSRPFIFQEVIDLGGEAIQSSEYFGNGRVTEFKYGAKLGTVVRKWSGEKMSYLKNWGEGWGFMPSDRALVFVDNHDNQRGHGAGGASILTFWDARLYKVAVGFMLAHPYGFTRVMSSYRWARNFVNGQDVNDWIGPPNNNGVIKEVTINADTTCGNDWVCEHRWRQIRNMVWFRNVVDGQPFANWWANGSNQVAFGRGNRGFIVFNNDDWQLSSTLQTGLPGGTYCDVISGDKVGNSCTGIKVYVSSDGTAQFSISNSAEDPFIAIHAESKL
Test: DNS starch hydrolysis assay with hog pancreas α-amylase; Lineweaver–Burk, Dixon and Eisenthal–Cornish-Bowden kinetics
Assay type: biochemical

IC50: 69.4 µM
SMILES: O=C(/C=C/c1ccc(O)cc1)O[C@@H]1CC(O)(C(=O)O)C[C@@H](O)C1O (stereo partly shown) [5-CQA, 5-O-p-coumaroylquinic acid]
